# What was measured:
# [1] = biological target: T1, LdDOHH (recombinant L. donovani deoxyhypusine hydroxylase) (Leishmania donovani, UniProt D9IFD5); test: [3H]hypusine release assay (periodate oxidation), Hill fit; assay type: biochemical; conditions: read-out: concentration that inhibited 50% of activity
# T1 construct: gene DOHH; full length, 326 aa (981 bp ORF, ~36 kDa), pET30a EcoRI-HindIII, 6xHis tag printed as C-terminal (~6 kDa, kept), ~42 kDa, E. coli BL21(DE3), Ni-NTA
# T1 sequence (D9IFD5 1-326): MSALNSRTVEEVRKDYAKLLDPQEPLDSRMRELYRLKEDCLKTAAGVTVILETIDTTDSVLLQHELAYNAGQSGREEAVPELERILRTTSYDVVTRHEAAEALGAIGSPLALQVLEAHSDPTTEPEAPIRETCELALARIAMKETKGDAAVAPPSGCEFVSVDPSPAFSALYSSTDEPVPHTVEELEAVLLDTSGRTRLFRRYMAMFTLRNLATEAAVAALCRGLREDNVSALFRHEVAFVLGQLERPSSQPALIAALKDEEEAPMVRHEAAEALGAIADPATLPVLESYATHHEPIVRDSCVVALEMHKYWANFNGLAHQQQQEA
# [2] = biological target: T2, hDOHH (recombinant human deoxyhypusine hydroxylase) (Homo sapiens, UniProt Q9BU89); test: [3H]hypusine release assay (periodate oxidation); assay type: biochemical
# T2 construct: gene DOHH; hDOHH-pGEX-4T-3, E. coli BL21, GST tag removed with thrombin
# T2 sequence (Q9BU89 1-302): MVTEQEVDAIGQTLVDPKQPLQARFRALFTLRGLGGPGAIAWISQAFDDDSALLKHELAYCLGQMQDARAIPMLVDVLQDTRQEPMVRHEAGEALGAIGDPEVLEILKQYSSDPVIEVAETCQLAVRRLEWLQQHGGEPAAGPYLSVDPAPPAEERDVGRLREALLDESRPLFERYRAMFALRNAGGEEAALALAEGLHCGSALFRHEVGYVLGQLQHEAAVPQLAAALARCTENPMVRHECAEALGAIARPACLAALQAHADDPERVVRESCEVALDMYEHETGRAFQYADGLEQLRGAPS
Structure (SMILES),IC50 [1] [µM],inhibition at 15 µM [2] [%]
Cc1cc(C2CCCCC2)n(O)c(=O)c1 [ciclopirox olamine],13.6,~32
N[C@@H](Cn1ccc(=O)c(O)c1)C(=O)O [mimosine],13,~22

# — publication PMC3306375, “A Unique Modification of the Eukaryotic Initiation Factor 5A Shows the Presence of the Complete Hypusine Pathway in Leishmania donovani” (PLoS ONE, 2012)
